Measured values from patent publication US9145408B2 (priority 2008, dated 2015).
Where a name gives a salt, the structure may show the parent alone.

Legend:
[1] = test system: FCA-induced thermal hyperalgesia; assay: FCA model of inflammatory pain, thermal hyperalgesia; assay type: in vivo; details: rat FCA model
Description: (§1) Test Animals: Each experiment used rats weighing between 200-260 g at the start of the experiment. The rats were group-housed and had free access to food and water at all times, except prior to oral administration of a Substituted-Quinoxaline-Type Bridged-Piperidine Compound when food was removed for 16 hours before dosing. A control group acted as a comparison to rats treated with a Substituted-Quinoxaline-Type Bridged-Piperidine Compound. The control group was administered the carrier for the Substituted-Quinoxaline-Type Bridged-Piperidine Compound. The volume of carrier administered to the control group was the same as the volume of carrier and Substituted-Quinoxaline-Type Bridged-Piperidine Compound administered to the test group.
Inflammatory Pain: To assess the actions of a Substituted-Quinoxaline-Type Bridged-Piperidine Compound for the treatment or prevention of inflammatory pain, the Freund's complete adjuvant (“FCA”) model of inflammatory pain was used. […] The left hind paw of each animal was administered a 50 μL intraplantar injection of 50% FCA. 24 hour post injection, the animal was assessed for response to noxious mechanical stimuli by determining the PWT, or to noxious thermal stimuli by determining the PWL, as described below. […] Responses to noxious mechanical stimuli were then determined 1, 3, 5 and 24 hours post administration. Percentage reversal of hyperalgesia for each animal was defined as: […]
Response to Thermal Stimuli as an Assessment of Thermal Hyperalgesia: The plantar test can be used to assess thermal hyperalgesia. For this test, hind paw withdrawal latencies (PWL) to a noxious thermal stimulus were determined using a plantar test apparatus (commercially available from Ugo Basile of Italy) following the technique described by K. Hargreaves et al., “A New and Sensitive Method for Measuring Thermal Nociception in Cutaneous Hyperalgesia,” Pain 32(1):77-88 (1988). The maximum exposure time was set at 32 seconds to avoid tissue damage and any directed paw withdrawal from the heat source was taken as the end point. Three latencies were determined at each time point and averaged. Either only the affected (ipsilateral) paw was tested, or both the ipsilateral and contralateral (non-injured) paw were tested.

[2] = abnormal behavioral side effects (sedation, hyperactivity, hypoactivity); details: in vivo
[3] = test system: nerve injury-induced mechanical hyperalgesia; assay: Seltzer partial sciatic nerve ligation model of neuropathic pain, mechanical hyperalgesia; assay type: in vivo; details: rat Seltzer model, 3 mg/kg
Description: as §1
Partial ligation of the left sciatic nerve was performed under isoflurane/O2 inhalation anesthesia. Following induction of anesthesia, the left thigh of the rat was shaved and the sciatic nerve exposed at high thigh level through a small incision and was carefully cleared of surrounding connective tissues at a site near the trocanther just distal to the point at which the posterior biceps semitendinosus nerve branches off of the common sciatic nerve. A 7-0 silk suture was inserted into the nerve with a ⅜ curved, reversed-cutting mini-needle and tightly ligated so that the dorsal ⅓ to ½ of the nerve thickness was held within the ligature. The wound was closed with a single muscle suture (4-0 nylon (Vicryl)) and vetbond tissue glue. Following surgery, the wound area was dusted with antibiotic powder. Sham-treated rats underwent an identical surgical procedure except that the sciatic nerve was not manipulated. Following surgery, animals were weighed and placed on a warm pad until they recovered from anesthesia. Animals were then returned to their home cages until behavioral testing began. The animals were assessed for response to noxious mechanical stimuli by determining PWT, as described below, prior to surgery (baseline), then immediately prior to and 1, 3, and 5 hours after drug administration for rear paw of the animal. Percentage reversal of neuropathic hyperalgesia was defined as: […]
Response to Mechanical Stimuli as an Assessment of Mechanical Hyperalgesia: The paw pressure assay was used to assess mechanical hyperalgesia. For this assay, hind paw withdrawal thresholds (PWT) to a noxious mechanical stimulus were determined using an analgesymeter (Model 7200, commercially available from Ugo Basile of Italy) as described in C. […] The maximum weight that could be applied to the hind paw was set at 250 g and the end point is taken was complete withdrawal of the paw. PWT was determined once for each rat at each time point and either only the affected (ipsilateral) paw was tested, or both the ipsilateral and contralateral (non-injured) paw were tested.

[4] = molecular target: hERG (human ether a-go-go gene) (Homo sapiens (Human), UniProt Q12809); assay: cardiovascular side effects: in vitro hERG assay and APD in guinea pig purkinje fibers; assay type: cell-based; details: in vitro hERG assay; APD in guinea pig purkinje fibers
Description: These side effects were determined using known methods: an in vitro hERG (human ether a-go-go gene) assay as disclosed in Z. Zhou et al., “Properties of HERG Channels Stably Expressed in HEK 293 Cells Studied at Physiological Temperature,” Biophysical J. 74:230-241 (1998); and APD (action potential duration) in guinea pig purkinje fibers as disclosed in J. A. Hey, “The Guinea Pig Model for Assessing Cardiotoxic Proclivities of Second Generation Antihistamines,” Arzneimittelforschung 46(8):834-837 (1996).

[5] = 5 mg/kg dose, 3 hours after administration
[6] = 5 mg/kg dose, 5 hours after administration

Row | SMILES | % reversal of thermal hyperalgesia ([1]; 5 mg/kg dose, 1 hour after administration) | % reversal of thermal hyperalgesia [1, 5] | % reversal of thermal hyperalgesia [1, 6] | abnormal behavioral side effects, such as sedation, hyperactivity and/or hypoactivity [2] | % reversal of thermal hyperalgesia ([1]; 3 mg/kg dose, 1 hour after administration) | % reversal of thermal hyperalgesia ([1]; 3 mg/kg dose, 3 hours after administration) | % reversal of thermal hyperalgesia ([1]; 3 mg/kg dose, 5 hours after administration) | ED50 value for reversal of thermal hyperalgesia ([1]; 1 hour after administration) | ED50 value for reversal of thermal hyperalgesia ([1]; 3 hours after administration) | ED50 value for reversal of thermal hyperalgesia ([1]; 5 hours after administration) | % reversal of mechanical hyperalgesia ([3]; 1 hour after administration) | % reversal of mechanical hyperalgesia ([3]; 3 hours after administration) | % reversal of mechanical hyperalgesia ([3]; 5 hours after administration) | % reversal of mechanical hyperalgesia ([3]; 7 hours after administration) | cardiovascular side effects [4]
1 | O=C(O)c1nc2ccccc2n([C@H]2C[C@H]3CC[C@@H](C2)N3C2CCCCCCCCCC2)c1=O [Compound 358] | 34% | 46% | 79% | reduced abnormal behavioral side effects | – | – | – | – | – | – | – | – | – | – | –
2 | O=C(O)c1nc2ccccc2n([C@H]2C[C@H]3CC[C@@H](C2)N3[C@H]2C[C@@H]3CCC[C@@H](C3)C2)c1=O [Compound 361, 4-((endo)-8-((exo)-bicyclo[3.3.1]nonan-3-yl)-8-azabicyclo[3.2.1]octan-3-yl)-3-oxo-3,4-dihydroquinoxaline-2-carboxylic acid] | – | 90% | 70% | reduced abnormal behavioral side effects | – | – | – | – | – | – | – | – | – | – | –
3 | O=C(O)c1nc2ccccc2n([C@H]2C[C@H]3CCC[C@@H](C2)N3C2CC3CCCC(C3)C2)c1=O (stereo partly drawn) [Compound 362, 4-((endo)-9-((exo)-bicyclo[3.3.1]nonan-3-yl)-9-azabicyclo[3.3.1]nonan-3-yl)-3-oxo-3,4-dihydroquinoxaline-2-carboxylic acid] | – | – | – | reduced abnormal behavioral side effects | 86% | 51% | 27% | 0.8 mg/kg | 1.5 mg/kg | 3.0 mg/kg | 60% | 60% | 50% | 40% | reduced cardiovascular side effects
4 | C[C@@H]1C[C@@H]2C[C@H](C1)C[C@@H](N1[C@@H]3CCC[C@H]1C[C@@H](n1c(=O)c(C(=O)O)nc4ccccc41)C3)C2 [Compound 405, (exo, endo, endo)-4-(9-(7-methylbicyclo[3.3.1]nonan-3-yl)-9-azabicyclo[3.3.1]nonan-3-yl)-3-oxo-3,4-dihydroquinoxaline-2-carboxylic acid potassium salt] | – | – | – | – | – | – | – | – | – | – | 70% | 70% | 70% | – | –
